{"source": "patent US20260325520A1", "about": "“METHODS FOR TREATING OR PREVENTING NEUROENDOCRINE TUMR FORMATION USING CDC7 INHIBITORS” (Memorial Sloan-Kettering Cancer Center, priority 2022, published 2026)", "key": {"[1]": {"test_system": "SCLC cell lines (control and CDC7 KO)", "test": "Viability of control and CDC7 CRISPR-Cas9 KO cell lines treated with simurosertib", "format": "cell-based", "conditions": "GI50 concentration", "source_text": "(§1) FIG. 1A: CDC7 mRNA expression in cell lines derived from different tumor types. The data was obtained from CCLE through UCSC Xenabrowser portal (https://xenabrowser.net/) in December 2020. Lines indicate the median CDC7 mRNA expression in SCLC cell lines. FIG. 1B: CDC7 protein expression assessed by IHC in NSCLC (N=58) and SCLC (N=45) clinical samples. Protein expression is shown as IHC score. H-score medians and standard deviation are shown. FIG. 1C: Western blot showing CDC7 KO in H82 (SCLC-N) and H146 (SCLC-A) SCLC cell lines. Proliferation (FIG. 1D) and soft agar colony formation (FIG. 1E) assays in isogenic H82 and H146 cell lines with CDC7 KO. In FIG. 1D, lower line graphs correspond to CDC7 KO (sgCDC7). FIG. 1F: Ectopic overexpression of CDC7 in H69 (SCLC-A) and DMS114 (SCLC-Y) SCLC cell lines. Proliferation (FIG. 1G) and soft agar colony formation (FIG. 1H) assays in isogenic H69 and DMS114 cell lines with ectopic CDC7 overexpression. […] FIG. 1I: Bivariate correlation of CDC7 mRNA and protein expression with simurosertib or LY3143921 sensitivity (assessed as growth inhibition) in an array of SCLC cell lines. Correlation was calculated with Spearman's test. […]\nCytotoxic assays were performed as described in ^19. […] Viability was assessed with the CellTiter-Glo 2.0 Assay (Promega, G9242) as indicated by manufacturer."}, "LnCap (PRAD) cells": {"test_system": "LnCap (PRAD) cells", "test": "Viability of control and TP53/RB1-loss LnCap cells treated with simurosertib", "format": "cell-based", "conditions": "0.5 μM; double TP53/RB1 loss versus control", "source_text": "FIG. 4A: CDC7 mRNA expression in adenocarcinoma clinical specimens, categorized by their TP53/RB1 status. Data obtained from LUAD TCGA (PanCancer), LUAD OncoSG (OncoSG, Nat Genetics 2020) and PRAD TCGA (PanCancer). FIG. 4B: Western blot showing CDC7 protein levels in isogenic H1563 (LUAD) and 22PC (PRAD) cell lines with or without induced loss of function of TP53 and/or RB1 (see methods). FIG. 4C: Plot showing a representative biological replicate of an experiment assessing viability of control and TP53/RB1-loss H1563, 22PC and LnCap (PRAD) cells treated with 0.5 μM simurosertib. Student's t-test was performed to assess statistical significance (two-tailed, assuming heterogeneous value distribution). p-value legend: *<0.05, **<0.01, ***<0.001.\nTP53/RB1-deficient PRAD cell lines were generated as previously described^16. TP53/RB1-deficient LUAD cell lines were generated by lentiviral transduction of a construct expressing a dominant negative TP53 isoform and a short hairpin RNA against RB1, produced from the FU-CYW vector that was previously described^18 and kindly shared by Dr. Owen Witte.\nCytotoxic assays were performed as described in ^19. A total of 1,500 cells/well were seeded in 96-well plates and treated with the drugs/doses described for 96 hours. Viability was assessed with the CellTiter-Glo 2.0 Assay (Promega, G9242) as indicated by manufacturer."}, "SCLC cell lines": {"test_system": "SCLC cell lines", "test": "Growth inhibition of SCLC cell lines by CDC7 inhibitors, correlation with CDC7 mRNA and protein expression", "format": "cell-based", "conditions": "array of SCLC cell lines, Spearman's test", "source_text": "as §1\nCytotoxic assays were performed as described in ^19. […] Viability was assessed with the CellTiter-Glo 2.0 Assay (Promega, G9242) as indicated by manufacturer. […]"}, "Proteasome 20S": {"test_system": "Proteasome 20S", "test": "Proteasome activity assay", "format": "cell-based", "conditions": "prostate transformation models (FIG. 6D)", "source_text": "(§2) FIG. 6A: Pathway enrichment analyses on differentially expressed genes between the combo-and enzalutamide-treated tumors, collected at an intermediate time point in the for TP53/RB1-inactivated LnCap and 22PC experiments shown in FIG. 5. […] FIG. 6C: MYC mRNA levels in the tumors collected at endpoint in the prostate transformation models treated in FIG. 5A. FIG. 6D: Barplot showing proteasome activity in control and CDC7-inhibited (either pharmacologically by simurosertib, or genetically by CDC7 CRISPR KO) prostate transformation models. FIG. 6E: Western blots showing neuroendocrine marker expression in prostate models of transformation, when treated with enzalutamide, simurosertib or their combination. Specifically, for each treatment condition, isogenic control and MYC^T58A-expressing cells were analyzed.\nProteasome activity was measured with the Proteasome 20S Activity Assay Kit (#MAK172, Sigma), following the manufacturer's instructions."}, "MYC": {"test_system": "MYC", "test": "Western blot of MYC in tumors collected at intermediate time point", "format": "in vivo, mice", "conditions": "western blot (FIG. 6B)", "source_text": "as §2\nProtein extraction and western blot were performed as previously described^21. Antibodies for CDC7 (#3603, Cell Signaling Technology), MYC (#5605, Cell Signaling Technology), synaptophysin (#36406, Cell Signaling Technology), CD56 (#99746, Cell Signaling Technology), AR (#5153, Cell Signaling Technology vinculin (#13901, Cell Signaling Technology), tubulin (#3873, Cell Signaling Technology) and actin (#3700, Cell Signaling Technology). Quantifications were performed with the Image Studio software (Version 3.1, Li-Cor). Immunohistochemistry for CDC7 was performed with the CDC7 antibody #MA5-12589 from Invitrogen in TMAs including resected tumor samples form SCLC and NSCLC patients. All study subjects had provided signed informed consent for biospecimen analyses under an Institutional Review Board-approved protocol."}}}
{"molecule": "Cc1n[nH]cc1-c1cc2nc([C@@H]3CC4CCN3CC4)[nH]c(=O)c2s1", "note": "[simurosertib]", "values": [{"measurement": "simurosertib sensitivity of CDC7 KO cells", "setting": "[1]", "result": "CDC7 KO rendered the cells resistant to simurosertib"}, {"measurement": "simurosertib sensitivity", "setting": "LnCap (PRAD) cells", "result": "increased simurosertib sensitivity"}, {"measurement": "sensitivity correlation with CDC7 mRNA and protein expression", "setting": "SCLC cell lines", "result": "correlated with CDC7 mRNA and protein expression"}, {"measurement": "proteasome activity", "setting": "Proteasome 20S", "result": "induced proteasome activity"}, {"measurement": "MYC protein expression", "setting": "MYC", "result": "MYC downregulation"}]}
